Patent publication EP4467974A1, “NOVEL CHEMOSENSORS AND THEIR USE IN ELECTROCHEMICAL DETECTION METHODS” (Karlsruher Institut für Technologie, priority 2023, dated 2024)
Read-outs that look alike come from different tables or passages of the source.

Legend:
[1] = Binding affinity (log Ka) of guests for the macrocyclic receptor cucurbit[7]uril; details: PtC as indicator for CB7 (CB7⊃PtC inclusion complex), result in words
[2] = cited from earlier work
[3] = binding affinity for CB7 (host-guest complex)

SMILES	log Ka [2, 3]	also measured
OCCOCCOCCn1cc2[n+](n1)[Pt-2]([Cl])([Cl])[n+]1ccccc1-2 [PtC]	–	binding affinity [1]: intermediate
NCCc1ccc(O)c(O)c1 [dopamine]	5.0	–
CC(=O)O[C@H]1C[C@@H]2CC[C@@H]3[C@H](CC[C@@]4(C)[C@H]3C[C@H]([N+]3(C)CCCCC3)[C@@H]4OC(C)=O)[C@@]2(C)C[C@@H]1[N+]1(C)CCCCC1 [pancuronium bromide]	–	log Ka [2]: 10.23
NCCc1c[nH]c2ccc(O)cc12 [serotonin]	4.8	–
